# Test results: US7569572B2, “Pyrazolo[4,3-D]pyrimidines” (Pfizer Inc, priority 2004, dated 2009)
# Structures can show the parent of a compound that is named as a salt.
# Target: T1, human platelet PDE5 (Homo sapiens, UniProt O76074)
# T1 construct: utilizes PDE5 isolated from human platelets; from tissue; host or cells: human platelets
# Experiment: Method A: PDE-5 Inhibition Scintillation Proximity Assay (SPA) - Human Platelet
# Type: biochemical
# Details: cGMP substrate 500 nM, PDE5 isolated from human platelets
# From the text: Method A: PDE-5 Inhibition Scintillation Proximity Assay (SPA)—Human Platelet
# The assay measures the inhibition of human platelet PDE5 enzyme activity by a test compound in an in vitro assay that utilizes PDE5 isolated from human platelets. The PDE5 enzyme can be isolated from platelets essentially by a modification of the method of Thompson, W J et al.; Biochemistry 18(23), 5228-5237, 1979, as described by Ballard S A et al.; J. Urology 159(6), 2164-2171, 1998. PDE5 catalyzes the hydrolysis of [^3H]cGMP to the 5′ nucleotide [^3H]GMP. [^3H]GMP binds to yttrium silicate SPA beads and is detected by scintillation counting. […] The inhibition of enzyme activity is calculated relative to total PDE5 activity of uninhibited controls.
# PDE5 IC50 Assay: 96-Well Microtiter Plate Format
# Buffer A: 20 mM Tris-HCl, 5 mM MgCl2, pH 7.4
# Buffer B: 2 mg/ml BSA in Buffer A (enzyme buffer)
# cGMP substrate: Final concentration of 500 nM in assay
# The amount of ^3H-labeled substrate added depends upon the specific activity of [^3H]cGMP, and it is diluted with a 10 mM stock of cold cGMP in Buffer A for a final substrate concentration of 500 nM in the assay.
# PDE enzyme: Prepared in Buffer B. The dilution factor is determined by enzyme activity.
# SPA beads: 20 mg/ml suspension prepared in dH2O.
# Stocks of standard and test compounds are prepared at 5 mM in 100% DMSO. Compounds are serially diluted in separate dilution plates using a 10-point ½ log dilution format. 2 μl of the compound dilutions are added in duplicate to the wells of the assay plate; 2 μl of 100% DMSO are added to designated control wells. 25 μl of Buffer A are added to all wells. 25 μl of Buffer B are added to the negative control wells, and 25 μl of enzyme are added to the remaining wells. 50 μl of substrate are added to each well. Plates are sealed and incubated for 60 minutes on a plate shaker at 30 C. 50 μl of SPA beads are added to stop the reaction. The plates are again sealed and shaken for 15 minutes to allow the beads to bind the GMP product. The beads are allowed to settle for 30 minutes and then read on a NXT TopCount. Data is analyzed with the ECADA application. In this analysis, % inhibition is calculated: (mean maximum−compound value/(mean maximum−mean minimum)×100. IC50s are determined from sigmoid dose-response curves of enzyme activity vs compound concentration.
row,Structure (SMILES),IC50 [nM]
1,"CCOCCn1nc(CNC(=O)CN(C)C)c2nc(N(C)C)nc(Nc3cc(C)ccn3)c21 [Example 1, 2-Dimethylamino-N-[5-dimethylamino-1-(2-ethoxyethyl)-7-(4-methylpyridin-2-ylamino)-1H-pyrazolo[4,3-d]pyrimidin-3-ylmethyl]acetamide]",1.12
2,"CCOCCn1nc(CNS(C)(=O)=O)c2nc(N(C)C)nc(Nc3cc(C)ccn3)c21 [Example 2, N-[5-dimethylamino-1-(2-ethoxyethyl)-7-(4-methylpyridin-2-ylamino)-1H-pyrazolo[4,3-d]pyrimidin-3-ylmethyl]methanesulfonamide]",1.25
3,CCOCCn1nc(CN(C)C(C)=O)c2nc(N(C)C)nc(Nc3cc(C)ccn3)c21 [Example 13],0.4
4,"CCOCCn1nc(CN(C)C(C)=O)c2nc(N(C)C)nc(Nc3ccncn3)c21 [Example 16, N-[5-Dimethylamino-1-(2-ethoxyethyl)-7-(pyrimidin-4-ylamino)-1H-pyrazolo[4,3-d]pyrimidin-3-ylmethyl]-N-methylacetamide]",5.9
5,"CCOCCn1nc(CNC)c2nc(N(C)C)nc(Nc3cnccn3)c21 [Example 17, 1-(2-ethoxyethyl)-N^5,N^5-dimethyl-3-(methylaminomethyl)-N^7-(pyrazin-2-yl)-1H-pyrazolo[4,3-d]pyrimidine-5,7-diamine hydrochloride]",> 100
6,"CCOCCn1nc(CN2CCN(C)CC2)c2nc(N(C)C)nc(Nc3cc(C)ccn3)c21 [Example 18, 1-(2-Ethoxyethyl)-N^5,N^5-dimethyl-3-[(4-methylpiperazin-1-yl)methyl]-N^7-(4-methylpyridin-2-yl)-1H-pyrazolo[4,3-d]pyrimidine-5,7-diamine hydrochloride]",2.3
7,CCOCCn1nc(CN2CCC[C@@H]2COC)c2nc(N(C)C)nc(Nc3cc(C)ccn3)c21 [Example 19],4.3
8,CCOCCn1nc(CN2CCC[C@H]2COC)c2nc(N(C)C)nc(Nc3cc(C)ccn3)c21 [Example 20],2.1
9,CCOCCn1nc(CN2CC[C@H](OC)C2)c2nc(N(C)C)nc(Nc3cc(C)ccn3)c21 [Example 21],2
10,CCOCCn1nc(CN2CC[C@@H](OC)C2)c2nc(N(C)C)nc(Nc3cc(C)ccn3)c21 [Example 22],3.2
11,CCCNCc1nn(CCOCC)c2c(Nc3cc(C)ccn3)nc(N(C)C)nc12 [Example 24],5.8
12,CCOCCn1nc(CN2CCCC2)c2nc(N(C)C)nc(Nc3cc(C)ccn3)c21 [Example 25],5.2
13,CCNCc1nn(CCOCC)c2c(Nc3ccc(C)cn3)nc(N(C)C)nc12 [Example 26],3.4
14,CCOCCn1nc(CN(C)C)c2nc(N(C)C)nc(Nc3cc(C)ccn3)c21 [Example 28],6.9
15,CCOCCn1nc(CNCCOC)c2nc(N(C)C)nc(Nc3cc(C)ccn3)c21 [Example 29],3.3
16,"CCOCCn1nc(CN2CCOCC2)c2nc(N(C)C)nc(Nc3cc(C)ccn3)c21 [Example 30, 1-(2-ethoxyethyl)-N^5,N^5-dimethyl-3-[(4-morpholino)methyl]-N^7-(4-methylpyridin-2-yl)-1H-pyrazolo[4,3-d]pyrimidine-5,7-diamine]",1.06
17,"CCNCc1nn(CCOCC)c2c(Nc3ccncn3)nc(N(C)C)nc12 [Example 32, 1-(2-ethoxyethyl)-3-(ethylaminomethyl)-N^5,N^5-dimethyl-N^7-(pyrimidin-4-yl)-1H-pyrazolo[4,3-d]pyrimidine-5,7-diamine]",> 100
18,"CCOCCn1nc(CNCCOC)c2nc(N(C)C)nc(Nc3ccncn3)c21 [Example 33, 1-(2-ethoxyethyl)-3-[(2-methoxyethylamino)methyl]-N^5,N^5-dimethyl-N^7-pyrimidin-4-yl-1H-pyrazolo[4,3-d]pyrimidine-5,7-diamine]",> 100
19,"CCOCCn1nc(CN(CC)CC)c2nc(N(C)C)nc(Nc3ccncn3)c21 [Example 34, 3-(Diethylaminomethyl)-1-(2-ethoxyethyl)-N^5,N^5-dimethyl-N^7-(pyrimidin-4-yl)-1H-pyrazolo[4,3-d]pyrimidine-5,7-diamine]",23.6
20,"CCOCCn1nc(CNC)c2nc(N(C)C)nc(Nc3ccncn3)c21 [Example 35, 1-(2-ethoxyethyl)-N^5,N^5-dimethyl-3-(methylaminomethyl)-N^7-pyrimidin-4-yl-1H-pyrazolo[4,3-d]pyrimidine-5,7-diamine hydrochloride]",> 100
21,"CCOCCn1nc(CNC)c2nc(N(C)CCO)nc(Nc3cc(C)ccn3)c21 [Example 36, 2-{[1-(2-ethoxyethyl)-3-(methylaminomethyl)-7-(4-methylpyridin-2-ylamino)-1H-pyrazolo[4,3-d]pyrimidin-5-yl]methylamino}ethanol hydrochloride]",188
22,"CCOCCn1nc(CNC)c2nc(N(C)CCOC)nc(Nc3cc(C)ccn3)c21 [Example 37, 1-(2-ethoxyethyl)-N^5-(2-methoxyethyl)-N^5-methyl-3-(methylaminomethyl)-N^7-(4-methylpyridin-2-yl)-1H-pyrazolo[4,3-d]pyrimidine-5,7-diamine hydrochloride]",4.4
23,"CCCN(Cc1nn(CCOCC)c2c(Nc3cc(C)ccn3)nc(N(C)C)nc12)C(C)=O [Example 39, N-[5-Dimethylamino-1-(2-ethoxyethyl)-7-(4-methylpyridin-2-ylamino)-1H-pyrazolo[4,3-d]pyrimidin-3-ylmethyl]-N-propylacetamide]",1.53
24,"CCOCCn1nc(CN2CCNCC2)c2nc(N(C)C)nc(Nc3cc(C)ccn3)c21 [Example 40, 1-(2-ethoxyethyl)-N^5,N^5-dimethyl-N^7-(4-methylpyridin-2-yl)-3-(piperazin-1-ylmethyl)-1H-pyrazolo[4,3-d]pyrimidine-5,7-diamine hydrochloride]",5.8

# The remaining lines, values ahead:
row,IC50 [nM],Structure (SMILES)
1,1.1,CCNc1nc(Nc2cc(C)ccn2)c2c(n1)c(CNS(C)(=O)=O)nn2CCOCC [Example 3]
2,0.77,"CCOCCn1nc(CNC(=O)CO)c2nc(N(C)C)nc(Nc3cc(C)ccn3)c21 [Example 4, N-[5-dimethylamino-1-(2-ethoxyethyl)-7-(4-methylpyridin-2-ylamino)-1H-pyrazolo[4,3-d]pyrimidin-3-ylmethyl]-2-hydroxyacetamide]"
3,0.58,CCNc1nc(Nc2cc(C)ccn2)c2c(n1)c(CNC(=O)CO)nn2CCOCC [Example 5]
4,0.39,"CCOCCn1nc(CNC(C)=O)c2nc(N(C)C)nc(Nc3cc(C)ccn3)c21 [Example 6, N-[5-dimethylamino-1-(2-ethoxyethyl)-7-(4-methylpyridin-2-ylamino)-1H-pyrazolo[4,3-d]pyrimidin-3-ylmethyl]acetamide]"
5,9,CCOCCn1nc(CNC(C)=O)c2nc(NC)nc(Nc3cc(C)ccn3)c21 [Example 7]
6,0.59,"CCNc1nc(Nc2cc(C)ccn2)c2c(n1)c(CNC(C)=O)nn2CCOCC [Example 8, N-[1-(2-ethoxyethyl)-5-ethylamino-7-(4-methylpyridin-2-ylamino)-1H-pyrazolo[4,3-d]pyrimidin-3-ylmethyl]acetamide]"
7,0.33,"CCOCCn1nc(CNC(=O)CC)c2nc(N(C)C)nc(Nc3cc(C)ccn3)c21 [Example 9, N-[5-dimethylamino-1-(2-ethoxyethyl)-7-(4-methylpyridin-2-ylamino)-1H-pyrazolo[4,3-d]pyrimidin-3-ylmethyl]propionamide]"
8,2.5,CCOCCn1nc(CNC(=O)CC)c2nc(NC)nc(Nc3cc(C)ccn3)c21 [Example 10]
9,0.53,"CCNc1nc(Nc2cc(C)ccn2)c2c(n1)c(CNC(=O)CC)nn2CCOCC [Example 11, N-[1-(2-ethoxyethyl)-5-ethylamino-7-(4-methylpyridin-2-ylamino)-1H-pyrazolo[4,3-d]pyrimidin-3-ylmethyl]propionamide]"
10,4.5,CCOCCn1nc(CNC)c2nc(N(C)C)nc(Nc3cc(C)ccn3)c21 [Example 12]
11,5.5,CCOCCn1nc(CN(C)C(C)=O)c2nc(NC)nc(Nc3cc(C)ccn3)c21 [Example 14]
12,0.48,"CCNc1nc(Nc2cc(C)ccn2)c2c(n1)c(CN(C)C(C)=O)nn2CCOCC [Example 15, N-[1-(2-ethoxyethyl)-5-ethylamino-7-(4-methylpyridin-2-ylamino)-1H-pyrazolo[4,3-d]pyrimidin-3-ylmethyl]-N-methylacetamide]"
13,3.4,"CCNCc1nn(CCOCC)c2c(Nc3cc(C)ccn3)nc(N(C)C)nc12 [Example 31, 1-(2-ethoxyethyl)-3-(ethylaminomethyl)-N^5,N^5-dimethyl-N^7-(4-methylpyridin-2-yl)-1H-pyrazolo[4,3-d]pyrimidine-5,7-diamine]"
